Reference: PubChem BioAssay AID248 (DTP/NCI, 2004)
Values joined by “and” are separate entries in the source; they are usually repeats but may differ in a detail not shown here. Identical values can stand only once. Inconclusive results and toxic doses are left out.

System: L1210 leukemia ip in BDF1 mice, survival T/C
Test: NCI In Vivo Anticancer Drug Screen. Data for tumor model L1210 Leukemia (intraperitoneal) in B6D2F1 (BDF1) mice
Details: higher = longer survival
Method in brief: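 Mice bearing the transplanted tumor received compound or vehicle. Survival of the treated group was divided by that of the vehicle-treated control group to give the ratio.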

[1] = endpoint: mean survival time, dose: 100.0 mg/kg/injection, schedule: Q01DX009 (ip), vehicle: saline with Tween-80
[2] = endpoint: mean survival time, dose: 100.0 mg/kg/injection, schedule: Q01DX009 (ip), vehicle: Klucel (hydroxypropylcellulose) (HPC)
[3] = endpoint: mean survival time, dose: 200.0 mg/kg/injection, schedule: Q01DX009 (ip), vehicle: Klucel (hydroxypropylcellulose) (HPC)
[4] = endpoint: mean survival time, dose: 400.0 mg/kg/injection, schedule: Q01DX009 (ip), vehicle: Klucel (hydroxypropylcellulose) (HPC)

`CNNCc1ccc(C(=O)NC(C)C)cc1` was tested, and the T/C (endpoint: mean survival time, dose: 6.5 mg/kg/injection, schedule: Q01DX009 (ip), vehicle: saline) was 110 % of control and 112 % of control, the T/C (endpoint: mean survival time, dose: 8.0 mg/kg/injection, schedule: Q01DX009 (ip), vehicle: saline) was 121 % of control and the T/C (endpoint: mean survival time, dose: 12.0 mg/kg/injection, schedule: Q04DX002 (ip), vehicle: saline) was 93 % of control and 91 % of control. For the same compound, the T/C (endpoint: mean survival time, dose: 13.0 mg/kg/injection, schedule: Q01DX Z (ip), vehicle: saline) was 117 % of control, the T/C (endpoint: mean survival time, dose: 16.0 mg/kg/injection, schedule: Q01DX009 (oral), vehicle: saline) was 116 % of control and the T/C (endpoint: mean survival time, dose: 16.0 mg/kg/injection, schedule: Q03HX008 (ip), vehicle: saline) was 106 % of control. The T/C (endpoint: mean survival time, dose: 16.0 mg/kg/injection, schedule: Q03HX016 (ip), vehicle: saline) was 112 % of control, the T/C (endpoint: mean survival time, dose: 16.0 mg/kg/injection, schedule: Q03HX016 (oral), vehicle: saline) was 106 % of control and the T/C (endpoint: mean survival time, dose: 19.0 mg/kg/injection, schedule: Q01DX Z (ip), vehicle: saline) was 117 % of control. For the same compound, the T/C (endpoint: mean survival time, dose: 24.0 mg/kg/injection, schedule: Q04DX002 (ip), vehicle: saline) was 97 % of control, the T/C (endpoint: mean survival time, dose: 25.0 mg/kg/injection, schedule: Q01DX009 (ip), vehicle: saline) was 110 % of control and 117 % of control and the T/C (endpoint: mean survival time, dose: 25.0 mg/kg/injection, schedule: Q#A X020 (ip), vehicle: saline) was 151 % of control. The T/C (endpoint: mean survival time, dose: 32.0 mg/kg/injection, schedule: Q03HX008 (ip), vehicle: saline) was 112 % of control, the T/C (endpoint: mean survival time, dose: 32.0 mg/kg/injection, schedule: Q03HX016 (ip), vehicle: saline) was 117 % of control and the T/C (endpoint: mean survival time, dose: 37.5 mg/kg/injection, schedule: Q01DX009 (ip), vehicle: saline) was 120 % of control and 123 % of control. The T/C (endpoint: mean survival time, dose: 50.0 mg/kg/injection, schedule: Q#A X020 (ip), vehicle: saline) was 157 % of control, the T/C (endpoint: mean survival time, dose: 62.0 mg/kg/injection, schedule: Q01DX009 (ip), vehicle: saline) was 155 % of control and the T/C (endpoint: mean survival time, dose: 64.0 mg/kg/injection, schedule: Q03HX008 (ip), vehicle: saline) was 110 % of control. The T/C (endpoint: mean survival time, dose: 64.0 mg/kg/injection, schedule: Q03HX024 (ip), vehicle: saline) was 157 % of control, the T/C (endpoint: mean survival time, dose: 100.0 mg/kg/injection, schedule: Q01DX010 (ip), vehicle: saline) was 151 % of control and the T/C (endpoint: mean survival time, dose: 100.0 mg/kg/injection, schedule: Q01DX010 (oral), vehicle: saline) was 159 % of control. For the same compound, the T/C (endpoint: mean survival time, dose: 125.0 mg/kg/injection, schedule: Q01DX009 (ip), vehicle: clinical formulation) was 158 % of control, the T/C (endpoint: mean survival time, dose: 125.0 mg/kg/injection, schedule: Q01DX009 (ip), vehicle: saline) was 167 % of control and the T/C (endpoint: mean survival time, dose: 128.0 mg/kg/injection, schedule: Q01DX001 (ip), vehicle: saline) was 109 % of control. The T/C (endpoint: mean survival time, dose: 128.0 mg/kg/injection, schedule: Q01DX001 (iv), vehicle: saline) was 104 % of control, the T/C (endpoint: mean survival time, dose: 128.0 mg/kg/injection, schedule: Q01DX001 (oral), vehicle: saline) was 106 % of control and the T/C (endpoint: mean survival time, dose: 128.0 mg/kg/injection, schedule: Q01DX009 (oral), vehicle: saline) was 155 % of control and 164 % of control. For the same compound, the T/C (endpoint: mean survival time, dose: 128.0 mg/kg/injection, schedule: Q03HX008 (ip), vehicle: saline) was 121 % of control, the T/C (endpoint: mean survival time, dose: 128.0 mg/kg/injection, schedule: Q04DX003 (ip), vehicle: saline) was 121 % of control and the T/C (endpoint: mean survival time, dose: 128.0 mg/kg/injection, schedule: Q08DX002 (oral), vehicle: saline) was 106 % of control. The T/C (endpoint: mean survival time, dose: 133.0 mg/kg/injection, schedule: Q01DX009 (ip), vehicle: saline) was 150 % of control, the T/C (endpoint: mean survival time, dose: 150.0 mg/kg/injection, schedule: Q01DX009 (ip), vehicle: saline) was 159 % of control and the T/C (endpoint: mean survival time, dose: 250.0 mg/kg/injection, schedule: Q01DX001 (ip), vehicle: saline) was 112 % of control and 121 % of control. For the same compound, the T/C (endpoint: mean survival time, dose: 250.0 mg/kg/injection, schedule: Q01DX009 (ip), vehicle: clinical formulation) was 184 % of control, the T/C (endpoint: mean survival time, dose: 250.0 mg/kg/injection, schedule: Q01DX009 (ip), vehicle: water) was 188 % of control and the T/C (endpoint: mean survival time, dose: 256.0 mg/kg/injection, schedule: Q01DX001 (iv), vehicle: saline) was 99 % of control. For the same compound, the T/C (endpoint: mean survival time, dose: 256.0 mg/kg/injection, schedule: Q01DX001 (oral), vehicle: saline) was 110 % of control, the T/C (endpoint: mean survival time, dose: 256.0 mg/kg/injection, schedule: Q08DX002 (ip), vehicle: saline) was 104 % of control and the T/C (endpoint: mean survival time, dose: 300.0 mg/kg/injection, schedule: Q01DX009 (ip), vehicle: saline) was 166 % of control. The T/C (endpoint: mean survival time, dose: 320.0 mg/kg/injection, schedule: Q01DX010 (oral), vehicle: saline) was 117 % of control, the T/C (endpoint: mean survival time, dose: 400.0 mg/kg/injection, schedule: Q01DX010 (im), vehicle: saline) was 86 % of control and the T/C (endpoint: mean survival time, dose: 400.0 mg/kg/injection, schedule: Q01DX010 (oral), vehicle: saline) was 116 % of control. For the same compound, the T/C (endpoint: mean survival time, dose: 400.0 mg/kg/injection, schedule: Q01DX010 (sc), vehicle: saline) was 90 % of control, the T/C (endpoint: mean survival time, dose: 512.0 mg/kg/injection, schedule: Q04DX003 (ip), vehicle: saline) was 155 % of control and the T/C (endpoint: mean survival time, dose: 512.0 mg/kg/injection, schedule: Q04DX003 (oral), vehicle: saline) was 151 % of control. For the same compound, the T/C (endpoint: mean survival time, dose: 758.0 mg/kg/injection, schedule: Q04DX002 (ip), vehicle: saline) was 103 % of control, the T/C (endpoint: median survival time, dose: 300.0 mg/kg/injection, schedule: Q01DX009 (ip), vehicle: saline) was 166 % of control and 170 % of control and the T/C (endpoint: median survival time, dose: 500.0 mg/kg/injection, schedule: Q01DX009 (ip), vehicle: saline) was 49 % of control and 54 % of control.
In the case of `CCCNC(=O)Oc1cccc(NC(=O)CC)c1`, the T/C (endpoint: mean survival time, dose: 25.0 mg/kg/injection, schedule: Q01DX009 (ip), vehicle: saline with Tween-80) is reported as 100 % of control, the T/C (endpoint: mean survival time, dose: 50.0 mg/kg/injection, schedule: Q01DX009 (ip), vehicle: saline with Tween-80) is reported as 100 % of control and the T/C [1] is reported as 92 % of control.
In the case of `OB(O)CI`, the T/C (endpoint: mean survival time, dose: 5.0 mg/kg/injection, schedule: Q01DX001 (ip), vehicle: saline) is reported as 86 % of control, the T/C (endpoint: mean survival time, dose: 10.0 mg/kg/injection, schedule: Q01DX001 (ip), vehicle: saline) is reported as 95 % of control and the T/C (endpoint: mean survival time, dose: 20.0 mg/kg/injection, schedule: Q01DX001 (ip), vehicle: saline) is reported as 97 % of control.
With `O=[N+]([O-])c1ccc(CCCl)cc1` the T/C (endpoint: mean survival time, dose: 100.0 mg/kg/injection, schedule: Q04DX003 (ip), vehicle: acetone) was 102 % of control, the T/C (endpoint: mean survival time, dose: 200.0 mg/kg/injection, schedule: Q04DX003 (ip), vehicle: acetone) was 104 % of control and the T/C (endpoint: mean survival time, dose: 400.0 mg/kg/injection, schedule: Q04DX003 (ip), vehicle: acetone) was 92 % of control.
For `CC1=C/C(=N/N=c2\ccn(O)cc2C)C=CC1=N`, the T/C (endpoint: mean survival time, dose: 50.0 mg/kg/injection, schedule: Q04DX002 (sc), vehicle: saline with Tween-80) was 100 % of control, the T/C (endpoint: mean survival time, dose: 100.0 mg/kg/injection, schedule: Q04DX002 (sc), vehicle: saline with Tween-80) was 100 % of control and the T/C (endpoint: mean survival time, dose: 200.0 mg/kg/injection, schedule: Q04DX002 (sc), vehicle: saline with Tween-80) was 100 % of control. For the same compound, the T/C (endpoint: mean survival time, dose: 400.0 mg/kg/injection, schedule: Q04DX002 (sc), vehicle: saline with Tween-80) was 93 % of control.
With `CC(Nc1ccccc1)(C(N)=O)c1ccccc1` (stereo not drawn) the T/C (endpoint: mean survival time, dose: 100.0 mg/kg/injection, schedule: Q01DX001 (ip), vehicle: saline sonified) was 96 % of control, the T/C (endpoint: mean survival time, dose: 200.0 mg/kg/injection, schedule: Q01DX001 (ip), vehicle: saline sonified) was 100 % of control and the T/C (endpoint: mean survival time, dose: 400.0 mg/kg/injection, schedule: Q01DX001 (ip), vehicle: saline sonified) was 97 % of control.
In the case of `O=C(O)C1CC(=O)N(Cc2ccccc2)C1` (stereo not drawn), the T/C [1] is reported as 102 % of control, the T/C (endpoint: mean survival time, dose: 100.0 mg/kg/injection, schedule: Q04DX003 (ip), vehicle: saline with Tween-80) is reported as 100 % of control and the T/C (endpoint: mean survival time, dose: 200.0 mg/kg/injection, schedule: Q01DX009 (ip), vehicle: saline with Tween-80) is reported as 90 % of control. The T/C (endpoint: mean survival time, dose: 200.0 mg/kg/injection, schedule: Q04DX003 (ip), vehicle: saline with Tween-80) was 107 % of control, the T/C (endpoint: mean survival time, dose: 400.0 mg/kg/injection, schedule: Q01DX009 (ip), vehicle: saline with Tween-80) was 98 % of control and the T/C (endpoint: mean survival time, dose: 400.0 mg/kg/injection, schedule: Q04DX003 (ip), vehicle: saline with Tween-80) was 96 % of control.
`CS(=O)(=O)OCC1CCCO1` (stereo not drawn) was tested, and the T/C (endpoint: mean survival time, dose: 50.0 mg/kg/injection, schedule: Q01DX001 (ip), vehicle: saline) was 107 % of control, the T/C (endpoint: mean survival time, dose: 100.0 mg/kg/injection, schedule: Q01DX001 (ip), vehicle: saline) was 98 % of control and the T/C [2] was 98 % of control. For the same compound, the T/C (endpoint: mean survival time, dose: 100.0 mg/kg/injection, schedule: Q04DX003 (ip), vehicle: Klucel (hydroxypropylcellulose) (HPC)) was 108 % of control, the T/C (endpoint: mean survival time, dose: 200.0 mg/kg/injection, schedule: Q01DX001 (ip), vehicle: saline) was 98 % of control and the T/C [3] was 111 % of control. For the same compound, the T/C (endpoint: mean survival time, dose: 200.0 mg/kg/injection, schedule: Q04DX003 (ip), vehicle: Klucel (hydroxypropylcellulose) (HPC)) was 103 % of control, the T/C (endpoint: mean survival time, dose: 400.0 mg/kg/injection, schedule: Q01DX001 (ip), vehicle: saline) was 101 % of control and the T/C [4] was 93 % of control. The T/C (endpoint: mean survival time, dose: 400.0 mg/kg/injection, schedule: Q04DX003 (ip), vehicle: Klucel (hydroxypropylcellulose) (HPC)) was 104 % of control.
For `Cc1ccc(C(=O)C=O)c(C)c1`, the T/C [2] was 96 % of control, the T/C [3] was 105 % of control and the T/C [4] was 109 % of control.
